Tests used:
[1] = molecular target: SRSF1 (Homo sapiens, UniProt Q07955); conditions: cited from earlier work
[2] = system: HIV-1; conditions: cited from earlier work
[3] = system: HBV genotype C; assay: De novo establishment of HBV infection/cccDNA in naive dHepaRG, genotype C (treatment before and during inoculation); type: cell-based, Hepatitis B virus
Description: FIG. 1. Experimental outlines. Treatment schemes: (a) Treatments in pre-infection: dHepaRG cells were treated for 24 h (at day −1) with 100 nM of PreS1 peptide (PreS1-pep) or 10 μM of 1C8, or untreated (NT). At day 0, cells were inoculated with HBV (MOI=250) or with HDV (MOI=25) in the presence of drugs for 24 h. For the tenofovir control (TDF at 10 μM), cells were treated at day 1 and 4 post-infection. Supernatant and cells were harvested at day 7 post-infection. (b) Treatments in post-infection: dHepaRG cells were inoculated with HBV (MOI=250) or with HDV (MOI=25). At days 4, 7 and 9 post infection, cells were treated with TDF 10 μM, lamivudine (3TC) at 10 μM, 1C8 10 μM or untreated (NT). […]
FIG. 8. […] B) HBs and HBe secreted antigens in supernatant were quantified by ELISA, whereas HBV DNA contained in virions was quantified by qPCR after viral nucleic acid extraction from supernatant. […] Statistics were done by two-tailed Mann-Whitney test, with following significativity: *P<0.05, **P<0.01, ***P<0.001, ****P<0.0001. nd=not determined […]
From cell culture supernatants, secreted HBe and HBs antigens were quantified by ELISA, using a chemiluminescence immunoassay kit (Autobio, China) following manufacturer's instructions. […]
A HBV standard was used for quantification of extracellular viral DNA and RNA. […] CccDNA was normalized to β-Globin quantification. […]

[4] = system: HDV genotype 1; assay: Hepatitis delta virus replication in infected dHepaRG cells (intracellular HDV RNA, RTqPCR); type: cell-based; conditions: HDV MOI 10 vge/cell, 10 microM three times post-infection
Description: FIG. 1. Experimental outlines. Treatment schemes: (a) Treatments in pre-infection: dHepaRG cells were treated for 24 h (at day −1) with 100 nM of PreS1 peptide (PreS1-pep) or 10 μM of 1C8, or untreated (NT). At day 0, cells were inoculated with HBV (MOI=250) or with HDV (MOI=25) in the presence of drugs for 24 h. For the tenofovir control (TDF at 10 μM), cells were treated at day 1 and 4 post-infection. Supernatant and cells were harvested at day 7 post-infection. (b) Treatments in post-infection: dHepaRG cells were inoculated with HBV (MOI=250) or with HDV (MOI=25). At days 4, 7 and 9 post infection, cells were treated with TDF 10 μM, lamivudine (3TC) at 10 μM, 1C8 10 μM or untreated (NT). Supernatant and cells were harvested at day 11 postinfection.
FIG. 5. […] B) HBs and HBe secreted antigens in supernatant were quantified by ELISA, whereas HBV DNA contained in virions was quantified by qPCR after viral nucleic acid extraction from supernatant. C) Intracellular HDV RNA was quantified by RTqPCR after total RNA extraction from cells. D) Viability was monitored in 1C8-treated (or control treated; puromycin is a positive toxic molecule) cells by CellTiter-Glo® luminescent cell viability assay. […] Statistics were done by two-tailed Mann-Whitney test, with following significativity: *P<0.05, **P<0.01, ***P<0.001, ****P<0.0001. nd=not determined

Sequence of SRSF1 (Q07955 whole entry, species assumed): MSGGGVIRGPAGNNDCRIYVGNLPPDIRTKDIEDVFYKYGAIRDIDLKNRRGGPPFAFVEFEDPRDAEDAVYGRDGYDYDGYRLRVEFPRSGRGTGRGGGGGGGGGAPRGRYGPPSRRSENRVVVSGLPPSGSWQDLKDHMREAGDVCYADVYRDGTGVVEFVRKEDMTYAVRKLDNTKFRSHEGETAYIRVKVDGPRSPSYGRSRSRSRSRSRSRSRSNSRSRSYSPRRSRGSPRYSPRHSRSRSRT

SMILES: Cn1ccc(=O)c(C(=O)Nc2nsc3ccc([N+](=O)[O-])cc23)c1 [1C8, 4-pyridinonebenzisothiazole carboxamide]
- inhibition of SRSF1 [1]: does not inhibit
- inhibition of HIV-1 replication [2]: strong inhibitor
- inhibition at 10 µM ([3]; Hepatitis B virus, dHepaRG treated before and during HBV inoculation): 70%
- other viral markers (intracellular RNAs, HBeAg, HBsAg), genotype C ([3]; dHepaRG treated before and during inoculation, 10 microM): also reduced
- inhibition of replication of hepatitis delta virus [4]: not capable to inhibit

From patent US20210052566A1, “METHODS FOR TREATING HEPATITIS B VIRUS (HBV) INFECTION” (INSERM (INSTITUT NATIONAL DE LA SANTÉ ET DE LA RECHERCHE …, priority 2018, published 2021)
